According to patent US9901081B2, “Transgenic mouse for determining the role of senescent cells in cancer” (Buck Institute for Research on Aging, priority 2012, dated 2018):

Assays:
[1] = test system: K-Ras induced lung tumors; assay: K-Ras mediated lung tumor multiplicity in INK-ATTAC:K-RasLA1 mice; format: in vivo, mouse; parameters: dose or concentration left out as unconfirmed; settings: INK-ATTAC3:K-RasLA1 and INK-ATTAC5:K-RasLA1 mice; from three weeks of age; twenty one days after treatment; FIG. 4
Excerpt: Briefly, INK-ATTAC (p16^Ink4a apoptosis through targeted activation of caspase) transgenic mice have an FK506-binding protein (FKBP)-caspase 8 (Casp8) fusion polypeptide under the control of the p16^Ink4a promoter (see FIG. 5 providing a vector sequence for the transgene and FIG. 6 providing sequences for components of the transgene including the promoter sequence). In the presence of AP20187, a synthetic drug that induces dimerization of a membrane bound myristoylated FKBP-Casp8 fusion protein, senescent cells specifically expressing the FKBP-Casp8 fusion protein via the p16^Ink4a promoter undergo programmed cell death (apoptosis) (see, e.g., Baker, Nature, supra, FIG. 1 therein). Two founder lines (INK-ATTAC^3 and INK-ATTAC^5) were each bred with the K-rasLA1 tumor model. […]
Two INK-ATTAC:K-RasLA1 were produced (one for INK-ATTAC line 3 and one for line 5). […] Twenty one days after treatment, the mice were sacrificed and tumor multiplicity in lungs was measured. […] In addition, metastasis and overall survival will be monitored after tumor induction in the presence or absence of p16-positive cells.

[2] = test system: p16INK4a, IL-6, MMP-3, mRFP expression; assay: RNA expression of SASP biomarkers and mRFP reporter after irradiation and GCV; format: in vivo, mouse
senescent cells [3] = assay: Detection and clearance of senescent cells by rLUC bioluminescence in irradiated p16-3MR mice; format: in vivo, mouse; settings: 7 Gy X-ray, after three months GCV 25 mg/kg, lung tissue, FIG. 1A
Protocol: Briefly, a group of p16-3MR transgenic mice were exposed to whole body ionizing radiation (7 Gy X-ray) and a control group of p16-3MR transgenic mice were mock-irradiated. After three months, the mice were treated with GCV (25 mg/kg) or vehicle only, and then at least two weeks later bioluminescence in tissues was examined after administering the rLUC substrate.

B16 mouse melanoma cells [4] = assay: B16 melanoma tail-vein engraftment in irradiated p16-3MR mice (primary tumors and metastases); format: in vivo
Protocol: Briefly, 10^6 B16 mouse melanoma cells, a highly aggressive cell line that is syngeneic with p16-3MR transgenic mice (C57B16 background), that express firefly luciferase (fLUC, to enable their detection by bioluminescence) were injected into the tail vein of the p16-3MR transgenic mice three months after being either mock irradiated or irradiated, as described in Example 2. B16 mouse melanoma cells first colonize the lung, where they form primary tumors approximately two weeks after injection, and thereafter metastasize to distal tissues to form secondary tumors in, for example, the pancreas, liver and visceral fat. The biolumninescence markers, fLUC and rLUC are distinguishable because the enzymes use different substrates.
As nodules are difficult to count in fat tissue, metastatic cells were represented as an estimated % of total area of fat.

p16INK4a and mRFP mRNAs = assay: Senescent cell biomarkers in skin biopsies of doxorubicin-treated p16-3MR mice; format: in vivo, mouse; settings: doxorubicin 10 mg/kg, then vehicle or GCV 25 mg/kg daily for 7 days; FIG. 10
Protocol: (§1) Briefly, p16-3MR transgenic mice were treated with vehicle (ctrl) or 10 mg/kg doxorubicin. Seven days after doxorubicin treatment, mice were treated daily with GCV (25 mg/kg) for 7 days or vehicle only. 3 days after the last GCV treatment, 4×10^5 B16 mouse melanoma cells were injected subcutaneously into the p16-3MR transgenic mice, and mice were sacrificed after 12 days for analysis.
Skin biopsies were collected and measured for abundance of senescent cell biomarkers (p16INK4a and mRFP mRNAs).

B16 mouse melanoma cells [5] = assay: Subcutaneous B16 melanoma growth in doxorubicin-treated p16-3MR mice; format: in vivo; settings: for tumor growth / primary tumors (B16 bioluminescence) / tumor diameters (tumor sizes): then vehicle or GCV, twelve days after B16 injection; for tumor growth / primary tumors (B16 bioluminescence): FIG. 11; for tumor diameters (tumor sizes): FIG. 12
Protocol: as §1

[6] = Behavior metrics in p16-3MR mice bearing MMTV-PymT tumors; format: in vivo, mouse
Protocol: (§2) The MMTV-PymT tumor cells (5×10^5 cells) were injected into a mammary fat pad of each mouse. Small primary tumors formed over a period of one week. Then doxorubicin (DOXO) at 10 mg/kg or vehicle only (PBS) was administered once at Day 7. Beginning three days after mice received DOXO, GCV was then administered daily for five days intraperitoneally at 25 mg/kg, or vehicle only was administered. Four different treatment groups of mice (7 mice per group) included (1) no doxorubicin (vehicle), no GCV (vehicle); (2) doxorubicin, no GCV; (3) no doxorubicin, GCV; and (4) doxorubicin, GCV. Bioluminescence in tissues was examined (after administering the firefly luciferase (fLUC) substrate) to monitor tumor formation (see FIG. 14).
(§3) Mice were housed in metabolic cages (Promethion, Sable Systems International, Las Vegas, Nev.) for a period of 4 days to monitor food consumption, water consumption, body mass, spontaneous activity and behavior, voluntary exercise, oxygen consumption, and carbon dioxide production. Three days after GCV treatment, animals were monitored for three nights, and the following nocturnal measurements were obtained: VO2 (mL/min); VCO2 (mL/min); food uptake (g); water uptake (g); Kcal/hr; and wheel run distance (m). The data represent the average of the three nocturnal measurements.
Behavior of animals treated doxorubicin or doxorubicin and GCV was assessed by several criteria accepted in the art as behavior metrics.

senescent cells [7] = assay: Doxorubicin-induced senescent cells in tissues of p16-3MR mice (mRFP and p16INK4a mRNA); format: in vivo, mouse; settings: doxorubicin 10 mg/kg
Excerpt: Similar results were observed when the senescent cell accumulation was induced with the chemotherapeutic agent, doxorubicin. […] Various tissues were isolated (liver, heart, lung, kidney, and spleen) and measured for abundance of mRNAs encoding mRFP and p16INK4a as markers for senescent cells (see FIGS. 9A and 9B, respectively).

[8] = Metabolic cage measurements in p16-3MR mice bearing MMTV-PymT tumors; format: in vivo, mouse; settings: MMTV-PymT tumor mice; DOXO 10 mg/kg Day 7, GCV 25 mg/kg i.p. daily 5 days; average of three nocturnal measurements
Protocol: as §2, §3

[9] = Behavior metrics in p16-3MR mice not injected with tumor cells; format: in vivo, mouse
Protocol: (§4) Groups of p16-3MR transgenic mice (5 mice per group) were treated once with doxorubicin (10 mg/kg) or vehicle only as described above. Three days later, GCV was administered 5× daily intraperitoneally at 25 mg/kg, or vehicle only was administered. Three different treatment groups of mice included (1) untreated (NT); (2) doxorubicin, no GCV (DOXO+PBS); (3) doxorubicin and GCV (DOXO+GCV). Mice were housed in metabolic cages for 5-8 days and monitored as described above.

[10] = Metabolic cage measurements in p16-3MR mice not injected with tumor cells; format: in vivo, mouse; settings: doxorubicin 10 mg/kg once, GCV 25 mg/kg i.p. 5x daily
Protocol: as §4

[11] = GCV, fifteen days after B16 injection, FIG. 2C
[12] = MMTV-PymT tumor mice, 28 days after injection with tumor cells

## CC[C@H](C(=O)N1CCCC[C@H]1C(=O)O[C@H](CCc1ccc(OC)c(OC)c1)c1cccc(OCC(=O)NCC(CNC(=O)COc2cccc([C@@H](CCc3ccc(OC)c(OC)c3)OC(=O)[C@@H]3CCCCN3C(=O)[C@@H](CC)c3cc(OC)c(OC)c(OC)c3)c2)CN(C)C)c1)c1cc(OC)c(OC)c(OC)c1 [AP20187]
[1]
  tumor numbers (tumor multiplicity in lungs): significantly reduced

## Nc1nc(O)c2ncn(COC(CO)CO)c2n1 [GCV, ganciclovir]
[2]; irradiated p16-3MR mice treated with GCV, FIG. 1B
  p16INK4a (p16), IL-6, MMP-3 and mRFP expression levels: returned p16INK4a (p16), IL-6, MMP-3 and mRFP expression levels to those found in the unirradiated control mice
[2]; wild-type, non-transgenic C57B16 mice, data not shown
  effect on expression levels in wild-type mice: no detectable effect
Senescent cells [3]
  rLUC expression levels (bioluminescence in tissues): comparable to unirradiated mice
B16 mouse melanoma cells [4]; 18 days after injection
  Detection of metastatic B16 melanoma cells: Fat (estimated % of total area of fat): 25%
  Detection of metastatic B16 melanoma cells: Liver (luminescent metastatic nodules): 7 ± 3.6 nodules
  Detection of metastatic B16 melanoma cells: Lung (luminescent nodules): TNTC
B16 mouse melanoma cells [4]; GCV, day 18, FIG. 8
  levels of B16 cells as detected by luminescence: still showed relatively low levels of B16 cells
B16 mouse melanoma cells [4]; GCV, eighteen days after injection, FIG. 3A
  primary lung tumors: large primary lung tumors were evident
B16 mouse melanoma cells [4]; GCV, eighteen days after injection, FIG. 3A, 3C
  metastases in distal organs (liver and fat tissue): almost devoid of metastases
B16 mouse melanoma cells [4]; [11]
  metastases: many fewer metastases
  primary tumors: much smaller primary tumors
B16 mouse melanoma cells [4]; GCV, fifteen days after injection, FIG. 8
  levels of B16 cells as detected by luminescence: relatively low levels of B16 cells
p16INK4a and mRFP mRNAs
  senescence in skin biopsies measured by p16INK4a and mRFP expression: low levels of p16INK4a and mRFP expression
B16 mouse melanoma cells [5]; doxorubicin 10 mg/kg
  tumor growth / primary tumors (B16 bioluminescence): much smaller primary tumors
  tumor diameters (tumor sizes): smaller tumor sizes
B16 mouse melanoma cells [5]; mice pre-treated with doxorubicin 10 mg/kg, GCV 25 mg/kg daily for 7 days
  size of B16 melanoma tumors: substantially reduced the size
[6]; tumor model animals treated with GCV after doxorubicin, vs doxorubicin only
  active behaviors (WHEEL, LLNGE, SLNGE): significantly more active behaviors

## COc1cccc2c1C(=O)c1c(O)c3c(c(O)c1C2=O)C[C@@](O)(C(=O)CO)C[C@@H]3O[C@H]1C[C@H](N)[C@H](O)[C@H](C)O1 [doxorubicin]
Senescent cells [7]; p16-3MR mice
  presence of senescent cells in tissues: induced the persistent presence of senescent cells
Senescent cells [7]; liver, heart, lung, kidney, spleen, vs untreated control mice, FIGS. 9A, 9B
  levels of mRFP and p16INK4a mRNA in tissues: higher levels of mRFP and p16INK4a in all tissues
[8]
  Kcal/hr: 0.39 ± 0.1 kcal/h
  VCO2: 1.19 ± 0.35 mL/min
  VO2: 1.35 ± 0.33 mL/min
  Wheel run distance: 3315 ± 1958 m
[9]
  IHOME: 1.86 ± 1.66
  LLNGE: 61.46 ± 18.11
  SLNGE: 6.94 ± 2.51
  THOME: 1.15 ± 1.12
  WHEEL: 9.58 ± 13.12
p16INK4a and mRFP mRNAs
  senescence in skin biopsies measured by p16INK4a and mRFP expression: increased senescence
[10]
  Kcal/hr: 0.34 ± 0.1 kcal/h
  VCO2: 1.1 ± 0.36 mL/min
  VO2: 1.14 ± 0.34 mL/min
  Wheel run distance (total m): 2708 ± 1867 m
B16 mouse melanoma cells [5]; doxorubicin 10 mg/kg
  growth of B16 melanoma cells injected subcutaneously: stimulated the growth
  tumor growth / primary tumors (B16 bioluminescence): increased
  tumor diameters (tumor sizes): increased tumor sizes
[6]; [12]
  IHOME: Entered habitat (stable mass reading): 4.86 ± 12.3
  LLNGE: Long lounge (>60 sec, no non-XY sensor interactions): 72.06 ± 24.05
  SLNGE: Short lounge (5-60 sec, no non-XY sensor interactions): 5.34 ± 3.64
  THOME: Interaction with habitat (no stable mass reading): 1.16 ± 2.54
  WHEEL: Interaction with wheel (>=1 revolution): 7.09 ± 10.84
